The source of these data is US10590128B2, “6,7,8,9-tetrahydro-5H-pyrido[2,3-d]azepine dopamine D3 ligands” (Pfizer Inc., priority 2016, dated 2020).

The structures appear in SMILES notation.

In assay [1] the target is human dopamine D2 receptor (hD2R) (Homo sapiens, UniProt P14416). The assay can be described thus: Human D2 receptor binding assay ([^3H]-Spiperone). The conditions noted are these: CHO cells expressing hD2R, geometric mean of 2-5 determinations unless marked b (single determination).
Assay [2] addresses human dopamine D3 receptor (hD3R) (Homo sapiens, UniProt P35462). The assay can be described thus: Human D3 receptor binding assay ([^3H]-7-OH-DPAT). Conditions: CHO cells expressing hD3R, geometric mean of 2-5 determinations unless marked b (single determination), read-out: hD3 in CHO cells Ki.

Chain of human dopamine D3 receptor (hD3R) (P35462 whole entry): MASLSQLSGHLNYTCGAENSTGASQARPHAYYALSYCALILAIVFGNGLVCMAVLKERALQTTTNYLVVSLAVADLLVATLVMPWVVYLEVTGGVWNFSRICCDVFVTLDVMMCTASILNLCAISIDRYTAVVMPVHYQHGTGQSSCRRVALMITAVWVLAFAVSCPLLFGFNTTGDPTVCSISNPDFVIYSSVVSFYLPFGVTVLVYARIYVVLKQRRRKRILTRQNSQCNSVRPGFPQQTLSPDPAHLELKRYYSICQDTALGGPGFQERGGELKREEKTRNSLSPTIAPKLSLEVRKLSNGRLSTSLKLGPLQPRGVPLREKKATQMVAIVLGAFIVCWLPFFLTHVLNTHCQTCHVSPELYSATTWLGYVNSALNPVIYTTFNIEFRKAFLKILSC
Chain of human dopamine D2 receptor (hD2R) (P14416 whole entry): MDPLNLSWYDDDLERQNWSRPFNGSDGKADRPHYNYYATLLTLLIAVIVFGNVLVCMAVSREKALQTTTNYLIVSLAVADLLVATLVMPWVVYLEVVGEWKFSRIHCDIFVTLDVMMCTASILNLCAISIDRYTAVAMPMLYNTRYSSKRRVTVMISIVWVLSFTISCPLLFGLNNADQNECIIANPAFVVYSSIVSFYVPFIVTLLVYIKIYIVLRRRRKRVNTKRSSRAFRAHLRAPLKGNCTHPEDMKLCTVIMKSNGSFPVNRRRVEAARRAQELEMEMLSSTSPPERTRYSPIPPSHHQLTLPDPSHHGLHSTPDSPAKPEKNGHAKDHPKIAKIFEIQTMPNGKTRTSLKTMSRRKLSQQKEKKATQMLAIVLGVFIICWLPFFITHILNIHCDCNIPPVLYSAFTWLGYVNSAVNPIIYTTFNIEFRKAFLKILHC

As for `COc1nc2c(cc1NS(=O)(=O)c1ccc(C3CCOC3)cc1)CCN(C)CC2` (centres unmarked) [Example 36, N-(2-methoxy-7-methyl-6,7,8,9-tetrahydro-5H-pyrido[2,3-d]azepin-3-yl)-4-(tetrahydrofuran-3-yl)benzenesulfonamide], the inhibitory constant (Ki) in assay [1] turned out to be 260 nM; in assay [2] it was 3.29 nM.

With `CCN1CCc2cc(NS(=O)(=O)c3ccc(C4CC4)cc3)c(OC)nc2CC1` [Example 30, 4-cyclopropyl-N-(7-ethyl-2-methoxy-6,7,8,9-tetrahydro-5H-pyrido[2,3-d]azepin-3-yl)benzenesulfonamide], the results for the Ki in assay [1] and in assay [2] were 55 nM and 0.89 nM, respectively.

In the case of `CCN1CCc2cc(NS(=O)(=O)c3ccc(C4(F)CCCC4)nc3)c(OC)nc2CC1` [Example 101, N-(7-ethyl-2-methoxy-6,7,8,9-tetrahydro-5H-pyrido[2,3-d]azepin-3-yl)-6-(1-fluorocyclopentyl)pyridine-3-sulfonamide], the Ki is 677 nM in assay [1] and 6.26 nM in assay [2].

For the compound `CCc1nc2c(cc1NS(=O)(=O)c1ccc([C@H]3CCCCO3)cc1)CCN(C)CC2` [Example 140, N-(2-ethyl-7-methyl-6,7,8,9-tetrahydro-5H-pyrido[2,3-d]azepin-3-yl)-4-[(2R)-tetrahydro-2H-pyran-2-yl]benzenesulfonamide], the Ki in assay [1] was 3300 nM; in assay [2], 27.5 nM.

For `COc1nc2c(cc1NS(=O)(=O)c1ccc(C)cc1)CCN(C)CC2` [Example 5, N-(2-Methoxy-7-methyl-6,7,8,9-tetrahydro-5H-pyrido[2,3-d]azepin-3-yl)-4-methylbenzenesulfonamide], the Ki in assay [1] stood at 333 nM; in assay [2], 3.72 nM.

With `COc1nc2c(cc1NS(=O)(=O)c1ccc([C@H]3CCCCO3)c(F)c1)CCN(C)CC2` [Example 110, 3-fluoro-N-(2-methoxy-7-methyl-6,7,8,9-tetrahydro-5H-pyrido[2,3-d]azepin-3-yl)-4-[(2R)-tetrahydro-2H-pyran-2-yl]benzenesulfonamide], the Ki was 25 nM in assay [1] and 1.27 nM in assay [2].

For the compound `COc1nc2c(cc1NS(=O)(=O)c1ccc(C3(F)CCCC3)nc1)CCN(C)CC2` [Example 11, 6-(1-fluorocyclopentyl)-N-(2-methoxy-7-methyl-6,7,8,9-tetrahydro-5H-pyrido[2,3-d]azepin-3-yl)pyridine-3-sulfonamide], the values for the Ki in assay [1] and in assay [2] were 106 nM and 3.31 nM, respectively.

Regarding `COc1nc2c(cc1NS(=O)(=O)c1ccc(C(C)C)cc1)CCN(C)CC2` [Example 54, N-(2-methoxy-7-methyl-6,7,8,9-tetrahydro-5H-pyrido[2,3-d]azepin-3-yl)-4-(propan-2-yl)benzenesulfonamide], the Ki in assay [1] is 14.4 nM; in assay [2], 0.38 nM.

As to `CCCN1CCc2cc(NS(=O)(=O)c3ccc(C(C)C)cc3)c(OC)nc2CC1` [Example 49, N-(2-methoxy-7-propyl-6,7,8,9-tetrahydro-5H-pyrido[2,3-d]azepin-3-yl)-4-(propan-2-yl)benzenesulfonamide], the Ki in assay [1] was determined as 102 nM; in assay [2], 0.88 nM.

As for `CCN1CCc2cc(NS(=O)(=O)c3ccc(C(C)C)cc3)c(OC)nc2CC1` [Example 51, N-(7-ethyl-2-methoxy-6,7,8,9-tetrahydro-5H-pyrido[2,3-d]azepin-3-yl)-4-(propan-2-yl)benzenesulfonamide], the Ki is 105 nM in assay [1] and 1.12 nM in assay [2].

For the compound `COc1nc2c(cc1NS(=O)(=O)c1ccc(C3CCOC(C)(C)C3)cc1)CCN(C)CC2` (single isomer, unassigned) [Example 86], the Ki in assay [1] came out at 1390 nM; in assay [2] it was 35.2 nM.

In the case of `CCN1CCc2nc(OC)c(NS(=O)(=O)c3ccc(C)cc3)cc2C(C)C1` (centres unmarked) [Example 13, N-(7-ethyl-2-methoxy-5-methyl-6,7,8,9-tetrahydro-5H-pyrido[2,3-d]azepin-3-yl)-4-methylbenzenesulfonamide], the Ki is 923 nM in assay [1] and 10.8 nM in assay [2].

For the compound `COc1nc2c(cc1NS(=O)(=O)c1ccc([C@H]3CCCO3)cc1)CCN(C)CC2` [Example 99, N-(2-methoxy-7-methyl-6,7,8,9-tetrahydro-5H-pyrido[2,3-d]azepin-3-yl)-4-[(2R)-tetrahydrofuran-2-yl]benzenesulfonamide], the Ki was 314 nM in assay [1] and 3.05 nM in assay [2].

Consider `COc1nc2c(cc1NS(=O)(=O)c1ccc(C3CCCOC3)cc1)CCN(C)CC2` (single isomer, unassigned) [Example 83], for which the Ki in assay [1] was 436 nM; in assay [2] it was 4.69 nM.

`COc1nc2c(cc1NS(=O)(=O)c1ccc(C3CC(F)CCO3)cc1)CCN(C)CC2` (single isomer, unassigned; diastereomer-1) [Example 108, 4-(4-fluorotetrahydro-2H-pyran-2-yl)-N-(2-methoxy-7-methyl-6,7,8,9-tetrahydro-5H-pyrido[2,3-d]azepin-3-yl)benzenesulfonamide, diastereomer-1]: the inhibitory constant (Ki) came to 1930 nM in assay [1] and 15.1 nM in assay [2].

Consider `COc1nc2c(cc1NS(=O)(=O)c1ccc(C(C)OC)cc1)CCN(C)CC2` (centres unmarked) [Example 32, 4-(1-methoxyethyl)-N-(2-methoxy-7-methyl-6,7,8,9-tetrahydro-5H-pyrido[2,3-d]azepin-3-yl)benzenesulfonamide], for which the Ki in assay [1] is 204 nM; in assay [2], 1.05 nM.

For `CCN1CCc2cc(NS(=O)(=O)c3ccc([C@H]4C[C@H](OCCF)C4)cc3)c(OC)nc2CC1` [Example 20, N-(7-ethyl-2-methoxy-6,7,8,9-tetrahydro-5H-pyrido[2,3-d]azepin-3-yl)-4-[trans-3-(2-fluoroethoxy)cyclobutyl]benzenesulfonamide], the results for the Ki in assay [1] and in assay [2] were 116 nM and 1.74 nM, respectively.

Take `CCCN1CCc2cc(NS(=O)(=O)c3ccc(C(C)C)cc3)c(OC(F)F)nc2CC1` [Example 12, N-[2-(Difluoromethoxy)-7-propyl-6,7,8,9-tetrahydro-5H-pyrido[2,3-d]azepin-3-yl]-4-(propan-2-yl)benzenesulfonamide]: the inhibition constant Ki in assay [1] was 260 nM; in assay [2], 281 nM.

Take `COc1nc2c(cc1NS(=O)(=O)c1ccc3c(c1)CC(C)(C)O3)CCN(C)CC2` [Example 34, N-(2-methoxy-7-methyl-6,7,8,9-tetrahydro-5H-pyrido[2,3-d]azepin-3-yl)-2,2-dimethyl-2,3-dihydro-1-benzofuran-5-sulfonamide]: the Ki came to 26.3 nM in assay [1] and 0.65 nM in assay [2].

With `CCCc1ccc(S(=O)(=O)Nc2cc3c(nc2OC)CCN(C)CC3)cc1` [Example 118, N-(2-methoxy-7-methyl-6,7,8,9-tetrahydro-5H-pyrido[2,3-d]azepin-3-yl)-4-propylbenzenesulfonamide], the inhibition constant Ki worked out at 5.41 nM in assay [1] and 0.57 nM in assay [2].

For the compound `CCO[C@H]1C[C@@](F)(c2ccc(S(=O)(=O)Nc3cc4c(nc3OC)CCN(C)CC4)cc2)C1` [Example 132, 4-(trans-3-ethoxy-1-fluorocyclobutyl)-N-(2-methoxy-7-methyl-6,7,8,9-tetrahydro-5H-pyrido[2,3-d]azepin-3-yl)benzenesulfonamide], the Ki in assay [1] stood at 367 nM; in assay [2], 2.23 nM.

Consider `COc1nc2c(cc1NS(=O)(=O)c1ccc([C@@H]3CCCO3)cc1)CCN(C)CC2` [Example 98, N-(2-methoxy-7-methyl-6,7,8,9-tetrahydro-5H-pyrido[2,3-d]azepin-3-yl)-4-[(2S)-tetrahydrofuran-2-yl]benzenesulfonamide], for which the Ki in assay [1] is 488 nM; in assay [2], 4.01 nM.
